Source: patent US12115248B2, “Devices and methods for delivering methane inhibiting compounds to animals” (Ruminant Biotech Corp Limited, priority 2022, dated 2024)
Several values for one entry are separate records, joined by “and”; a condition that tells them apart may be missing. Identical values can stand only once. Entries after “also recorded” stand apart in the source; their conditions may differ. Like-named read-outs stand apart in the source and are kept apart here. Marks after values point to notes of the source that are not given here.

Experiments:
[1] = tested on: methane emissions; test: Animal study (Example 3): gas emissions in respiration chambers; assay type: in vivo, dairy beef heifers
Procedure: An animal study was conducted to determine methane emissions from an animal implanted with a bolus of the disclosure. The experiment was designed as an unbalanced, completely randomized design with three treatments and three repeated measurements over time in three periods 8 to 12 weeks apart.
Nineteen dairy beef heifers (312±14 kg live weight), including three spare animals, were selected from a mob of 50 based on behaviour traits and liveweight from a research farm in the Manawatu, New Zealand. They were assigned to one of three treatments: a bolus containing no bromoform (CONTROL; n=4); a bolus releasing bromoform at a rate of about 300-400 mg/day (LOW, n=6); or a bolus releasing about 450-580 mg/day (HIGH, n=6). SmaXtec boluses were administered at the same time to monitor rumen temperature as an animal health monitor and to complement the weekly blood samples.
The heifers were transported from research farm to a testing centre for diet adaptation and gas measurements using respiration chambers. The heifers were adapted to the environment of the cattle yards and the fresh cut pasture for 7 days before receiving their allocated treatment bolus. Gas measurements started 13 days after the boluses were administrated. Each heifer was in the respiration chambers for 48 hours during the period of gas measurements, which took two weeks for four measurement groups. At the end of the measurements in respiration chambers, the animals were transported back to research farm.
Fermentation gases methane (CH4), carbon dioxide (CO2) and hydrogen (H2) were quantified in four open-circuit respiration chambers at the New Zealand Ruminant Methane Measurement Centre (AgResearch, Palmerston North, New Zealand). Each chamber is 15.4 m^3 (3.5 m long×2 m wide×2.2 m high) with an air flow rate of around 1.0 m^3/min, which was continuously monitored by measuring differential pressure using a Venturi flowmeter. Temperature inside respiration chambers was approximately 20° C. and the relative humidity was on average approximately 79%. All gases were measured at ˜2.8-min intervals using a 4900C Continuous Emission analyser (Servomex Group Ltd, East Sussex, UK) and daily production of each gas was calculated from the difference between concentration flowing in- and out of the chamber (Pinares-Patiño et al., 2012). Respiration chambers were opened twice daily (˜20 min each time) for cleaning, feeding, faecal sampling and feed refusal collection. No measurements were performed during the period when chambers were opened, and missing data were interpolated by taking the average of the last 12 values ([…]) before the doors were opened.
Data from the first period of gas measurements was analysed using the ‘predictmeans’ and ‘Ime4’ packages in the statistical software R 4.0.3 (R Core Team, 2020). Data for dry matter intake and gas emissions for each heifer were averaged across the two measurement days. Heifer served as the experimental unit. The mixed model included treatment as fixed effect and respiration chamber nested in measurement group as random effect.

[2] = tested on: methane emissions; test: Preliminary field trial (Example 14): gas emission measurements in respiration chambers; assay type: in vivo, heifers
Procedure: The following preliminary field trial is an example of the methane inhibiting capabilities of the bolus invention in a live animal trial using recognised methane analysis techniques. The bolus used in the trial is outlined in Table 14 and the trial time schedule is outlined in Table 16.
Five different total bromoform doses across two different diets were tested, giving a total of ten treatments (Table 15). […] Within each dose group, half of the animals were fed baleage (baled cut and covered pasture), and the other half were adapted to a diet of fresh cut ryegrass (New Zealand fresh pasture). Boluses were washed prior to administration to remove any bromoform that may have accumulated on the outside of the bolus. The additional boluses were administered on day 69 per os. (oesophagus). The second measurement session began 10 days after said bolus administration, with animals entering the respiration chambers for a 48-hour period in groups of four.
(§1) Liveweights of the animals were recorded prior to the first bolus administration and following each measurement period. Gas production of methane, hydrogen, and carbon dioxide was assessed every 3 min over a 48-hour period in respiration chambers using a 4900C Continuous Emission Analyser. […] Rumen fluid contents were sampled prior to bolus administration and following measurement periods in the respiration chambers. Rumen samples were assessed for pH and short-chain fatty acids (SCFAs) content, and were stored for bromoform residue analysis later on. Blood samples were collected 16 days prior to bolus administration, and on days 34 and 94 following the measurement periods. Blood samples were assessed biochemical constitution and for liver enzymes.
Emissions of methane (CH4), hydrogen (H2) and carbon dioxide (CO2) were assessed in respiration chambers over 48 hour measurements and converted to a per-day-total. […] The data are combined for both feeds during measurement session 2 (cf. schedule table 16). P-values were calculated by single-factor ANOVA and differences were deemed particularly significant for p-value <0.05.

[3] = Preliminary field trial (Example 14): dry matter intake, liveweight, blood samples; assay type: in vivo, heifers
Procedure: as §1
The data are combined for both feed types during measurement session 2. […]

[4] = rats; cited from earlier work
[5] = mice; cited from earlier work
[6] = after 48 hour with holding period; cited from earlier work
[7] = in vivo; cited from earlier work
[8] = 260 mg/d (HIGH + 156), period 2

BrC(Br)Br [bromoform]
H2 ([1]; HIGH, 450 mg/d): 20.08^a g/d
CH4 production (g/day) decrease compared with CONTROL ([1]; HIGH, about 450-580 mg/day): more than 99%
CH4 yield (g/kg dry matter intake) decrease compared with CONTROL ([1]; HIGH, about 450-580 mg/day): more than 99%
H2 ([1]; LOW, 300 mg/d): 20.60^a g/d
CH4 production (g/day) decrease compared with CONTROL ([1]; LOW, about 300-400 mg/day): more than 99%
CH4 yield (g/kg dry matter intake) decrease compared with CONTROL ([1]; LOW, about 300-400 mg/day): more than 99%
CO2 ([2]; 156 mg/d (CON + 156), period 2): 5666 ± 327 g/day
H2 ([2]; 156 mg/d (CON + 156), period 2): 7.9 ± 3.5 g/day
CH4 ([2]; 156 mg/d (CON + 156), period 2, all animals, average ± standard error): 48.7 ± 29.5 g/day
methane emissions of individual animals ([2]; 156 mg/day dose group (CON+156)): about 0.2 g/d and ~0 g/d and 76 g/d
methane emissions as % of the average of the untreated control group ([2]; 156 mg/day, one animal with partial knockdown): approximately 50%
CH4 ([2]; 182 mg/d (LOW + 156), period 2): 18.6 ± 18.2 g/day
CO2 ([2]; 182 mg/d (LOW + 156), period 2): 5589 ± 295 g/day
H2 ([2]; 182 mg/d (LOW + 156), period 2): 13.7 ± 4.7 g/day
methane inhibition, animals responding ([2]; 182 mg/d (LOW+156)): full methane inhibition was observed for three of the four treated animals; also recorded: Partial inhibition was observed for 1 out of 4 animals
methane emission compared to control animals ([2]; 182 mg/d, fourth animal): approximately 50%
CH4 ([2]; 208 mg/d (MED + 156), period 2): -0.3 ± 0.5 g/day
CO2 ([2]; 208 mg/d (MED + 156), period 2): 5011 ± 377 g/day
H2 ([2]; 208 mg/d (MED + 156), period 2): 17.2 ± 3.5 g/day
methane inhibition ([2]; 208 mg/d or more): full methane inhibition
CH4 [2, 8]: -0.2 ± 0.3 g/day
CO2 [2, 8]: 5159 ± 308 g/day
H2 [2, 8]: 17 ± 3.4 g/day
CH4 ([2]; Baleage, 156 mg/d): 59.1 g/day
CO2 ([2]; Baleage, 156 mg/d): 5251 g/day
H2 ([2]; Baleage, 156 mg/d): 7.4 g/day
CH4 ([2]; Baleage, 182 mg/d): 0.9 g/day
CO2 ([2]; Baleage, 182 mg/d): 5202 g/day
H2 ([2]; Baleage, 182 mg/d): 13.3 g/day
CH4 ([2]; Baleage, 208 mg/d): -1.0 g/day
CO2 ([2]; Baleage, 208 mg/d): 4919 g/day
H2 ([2]; Baleage, 208 mg/d): 19.9 g/day
CH4 ([2]; Baleage, 260 mg/d): 0.3 g/day
CO2 ([2]; Baleage, 260 mg/d): 4645 g/day
H2 ([2]; Baleage, 260 mg/d): 12.7 g/day
CH4 ([2]; Pasture, 156 mg/d): 38.2 g/day
CO2 ([2]; Pasture, 156 mg/d): 6081 g/day
H2 ([2]; Pasture, 156 mg/d): 8.4 g/day
CH4 ([2]; Pasture, 182 mg/d): 36.2 g/day
CO2 ([2]; Pasture, 182 mg/d): 5977 g/day
H2 ([2]; Pasture, 182 mg/d): 14.1 g/day
CH4 ([2]; Pasture, 208 mg/d): 0.3 g/day
CO2 ([2]; Pasture, 208 mg/d): 5104 g/day
H2 ([2]; Pasture, 208 mg/d): 14.4 g/day
CH4 ([2]; Pasture, 260 mg/d): -0.7 g/day
CO2 ([2]; Pasture, 260 mg/d): 5673 g/day
H2 ([2]; Pasture, 260 mg/d): 21.3 g/day
effective minimal daily dose ([2]; cattle, about 378 kg): 0.28 to 0.4 mg/kg/day
minimum dose for an effective mitigation of methanogenesis ([2]; cattle, about 378 kg): 104 to 156 mg/day
methane inhibition ([2]; dose range of 0-104 mg/day, chamber session 1 (data not shown)): no substantial methane inhibition
methane inhibition, animals responding ([2]; doses equal to and greater than 156 mg/d): 15 out of 16 animals
Average animal liveweight ([3]; 156 mg/d (CON + 156)): 380 kg
Average animal liveweight ([3]; 182 mg/d (LOW+156)): 387 kg
Average animal liveweight ([3]; 208 mg/d (MED + 156)): 376 kg
Average animal liveweight ([3]; 260 mg/d (HIGH + 156)): 369 kg
Dry matter intake ([3]; all tested doses): not significantly different; also recorded: not significantly altered
Animal liveweight, treated versus untreated control ([3]; in vivo): about the same
blood data, treated versus untreated control ([3]; in vivo): No differences
Average dry matter intake ([3]; treatment group CON + 156): 5.54 kg/day
Average dry matter intake ([3]; treatment group HIGH): 5.54 kg/day
Average dry matter intake ([3]; treatment group HIGH + 260): 4.47 kg/day
Average dry matter intake ([3]; treatment group LOW + 182): 5.15 kg/day
Average dry matter intake ([3]; treatment group LOW, both feeds, session 2): 5.11 kg/day
Average dry matter intake ([3]; treatment group MED): 5.72 kg/day
Average dry matter intake ([3]; treatment group MED + 208): 3.86 kg/day
half-life in animals [4]: 0.8 h
half-life in animals [5]: 1.2 h
residues in meat and tissue from slaughtered steers [6]: no residues
level in milk [7]: no significant increase
